Laboratory results from PubChem BioAssay AID1259407 (Chemical Carcinogenesis Research Information System (CCRIS), 2018).
Active and inactive are the calls of the source. No rule for the calls is given here. Where a SMILES comes first, the peptide text is derived from it.

Test system: CCRIS mutagenicity, Ames/micronucleus/aberration tests
Assay: CCRIS mutagenicity studies
[1] = Test System: AMES SALMONELLA TYPHIMURIUM, Strain/Indicator: TA98, Metabolic Activation: NONE, Method: PREINCUBATION
[2] = Test System: AMES SALMONELLA TYPHIMURIUM, Strain/Indicator: TA100, Metabolic Activation: NONE, Method: PREINCUBATION
[3] = Test System: AMES SALMONELLA TYPHIMURIUM, Strain/Indicator: TA1535, Metabolic Activation: NONE, Method: PREINCUBATION
[4] = Test System: AMES SALMONELLA TYPHIMURIUM, Strain/Indicator: TA1537, Metabolic Activation: NONE, Method: PREINCUBATION

With `COC1=CC(=O)c2c(ncc3c4c([nH]c23)CCCC4)C1=O` the mutagenic call (Test System: AMES SALMONELLA TYPHIMURIUM, Strain/Indicator: TA97A, Metabolic Activation: NONE, Method: STANDARD PLATE) was “active; positive”, the mutagenic call (Test System: AMES SALMONELLA TYPHIMURIUM, Strain/Indicator: TA97A, Metabolic Activation: RAT LIVER S-9, AROCLOR 1254, Method: STANDARD PLATE) was “active; positive” and the mutagenic call (Test System: AMES SALMONELLA TYPHIMURIUM, Strain/Indicator: TA98, Metabolic Activation: NONE, Method: STANDARD PLATE) was “active; positive”. For the same molecule, the mutagenic call (Test System: AMES SALMONELLA TYPHIMURIUM, Strain/Indicator: TA98, Metabolic Activation: RAT LIVER S-9, AROCLOR 1254, Method: STANDARD PLATE) was “active; positive”, the mutagenic call (Test System: AMES SALMONELLA TYPHIMURIUM, Strain/Indicator: TA100, Metabolic Activation: NONE, Method: STANDARD PLATE) was “active; positive” and the mutagenic call (Test System: AMES SALMONELLA TYPHIMURIUM, Strain/Indicator: TA100, Metabolic Activation: RAT LIVER S-9, AROCLOR 1254, Method: STANDARD PLATE) was “active; positive”. The mutagenic call (Test System: AMES SALMONELLA TYPHIMURIUM, Strain/Indicator: TA102, Metabolic Activation: NONE, Method: STANDARD PLATE) was “inactive; negative” and the mutagenic call (Test System: AMES SALMONELLA TYPHIMURIUM, Strain/Indicator: TA102, Metabolic Activation: RAT LIVER S-9, AROCLOR 1254, Method: STANDARD PLATE) was “inactive; negative”.
In the case of `C=C1/C(=C\C=C2/CCC[C@]3(C)[C@@H]([C@H](C)/C=C/[C@@H](O)C4CC4)CC[C@@H]23)C[C@@H](O)C[C@@H]1O`, the mutagenic call [1] is reported as “inactive; negative”, the mutagenic call (Test System: AMES SALMONELLA TYPHIMURIUM, Strain/Indicator: TA98, Metabolic Activation: S-9, Method: PREINCUBATION) is reported as “inactive; negative” and the mutagenic call [2] is reported as “inactive; negative”. The mutagenic call (Test System: AMES SALMONELLA TYPHIMURIUM, Strain/Indicator: TA100, Metabolic Activation: S-9, Method: PREINCUBATION) was “inactive; negative”, the mutagenic call [3] was “inactive; negative” and the mutagenic call (Test System: AMES SALMONELLA TYPHIMURIUM, Strain/Indicator: TA1535, Metabolic Activation: S-9, Method: PREINCUBATION) was “inactive; negative”. The mutagenic call [4] was “inactive; negative”, the mutagenic call (Test System: AMES SALMONELLA TYPHIMURIUM, Strain/Indicator: TA1537, Metabolic Activation: S-9, Method: PREINCUBATION) was “inactive; negative” and the mutagenic call (Test System: E. COLI, Strain/Indicator: WP2 UVRA, Metabolic Activation: NONE, Method: PREINCUBATION) was “inactive; negative”. The mutagenic call (Test System: E. COLI, Strain/Indicator: WP2 UVRA, Metabolic Activation: S-9, Method: PREINCUBATION) was “inactive; negative”.
For `NC(=O)N(CCC(=O)O)N=O`, the mutagenic call [2] was “active; positive”, the mutagenic call [3] was “active; positive” and the mutagenic call (Test System: E. COLI B, Strain/Indicator: H/R30R, Metabolic Activation: NONE) was “active; positive”. The mutagenic call (Test System: E. COLI B, Strain/Indicator: HS30R, Metabolic Activation: NONE) was “active; positive”.
With `COC(=O)[C@H](Cc1ccccc1)NC(=O)[C@@H](N)CC(=O)O` (H-Asp-Phe-OMe) the mutagenic call (End Point: In vivo micronucleus, Test System: Bone marrow polychromatic erythrocytes, Species: Rat, Strain/Sex: F344/N, Male, Route: Oral) was “inactive; negative”, the mutagenic call (End Point: In vivo micronucleus, Test System: Peripheral blood normochromatic erythrocytes, Species: Mouse, Strain/Sex: B6.129-Cdkn2atm1Rdp (N2) Cdkn2a deficient/Female, Route: Oral) was “inactive; negative” and the mutagenic call (End Point: In vivo micronucleus, Test System: Peripheral blood normochromatic erythrocytes, Species: Mouse, Strain/Sex: B6.129-Cdkn2atm1Rdp (N2) Cdkn2a deficient/Male, Route: Oral) was “inactive; negative”. The mutagenic call (End Point: In vivo micronucleus, Test System: Peripheral blood normochromatic erythrocytes, Species: Mouse, Strain/Sex: B6.129-Trp53tm1Brd (N5) p53 Haploinsufficient/Female, Route: Oral) was “active; positive (significant trend test and significant (p=0.0004) increase in frequenc”, the mutagenic call (End Point: In vivo micronucleus, Test System: Peripheral blood normochromatic erythrocytes, Species: Mouse, Strain/Sex: B6.129-Trp53tm1Brd (N5) p53 Haploinsufficient/Male, Route: Oral) was “inactive; negative” and the mutagenic call (End Point: In vivo micronucleus, Test System: Peripheral blood normochromatic erythrocytes, Species: Mouse, Strain/Sex: FVB Tg.Ac hemizygous/Female, Route: Oral) was “inactive; negative”. The mutagenic call (End Point: In vivo micronucleus, Test System: Peripheral blood normochromatic erythrocytes, Species: Mouse, Strain/Sex: FVB Tg.Ac hemizygous/Male, Route: Oral) was “inactive; negative”, the mutagenic call (Test System: Ames Salmonella typhimurium, Strain/Indicator: TA97, Metabolic Activation: Hamster, liver, S-9, Aroclor 1254, 10 and 30%, Method: Preincubation) was “inactive; negative” and the mutagenic call (Test System: Ames Salmonella typhimurium, Strain/Indicator: TA97, Metabolic Activation: None, Method: Preincubation) was “inactive; negative”. The mutagenic call (Test System: Ames Salmonella typhimurium, Strain/Indicator: TA97, Metabolic Activation: Rat, liver, S-9, Aroclor 1254 (10% or 30%), Method: Preincubation) was “active; positive in two trials with 30% s-9”, the mutagenic call (Test System: Ames Salmonella typhimurium, Strain/Indicator: TA98, Metabolic Activation: Hamster, liver, S-9, Aroclor 1254, 10 and 30%, Method: Preincubation) was “inactive; negative” and the mutagenic call (Test System: Ames Salmonella typhimurium, Strain/Indicator: TA98, Metabolic Activation: None, Method: Preincubation) was “inactive; negative”. For the same molecule, the mutagenic call (Test System: Ames Salmonella typhimurium, Strain/Indicator: TA98, Metabolic Activation: Rat, liver, S-9, Aroclor 1254, 10 and 30%, Method: Preincubation) was “inactive; negative”, the mutagenic call (Test System: Ames Salmonella typhimurium, Strain/Indicator: TA100, Metabolic Activation: Hamster, liver, S-9, Aroclor 1254, 10 and 30%, Method: Preincubation) was “inactive; negative” and the mutagenic call (Test System: Ames Salmonella typhimurium, Strain/Indicator: TA100, Metabolic Activation: None, Method: Preincubation) was “inactive; negative”. The mutagenic call (Test System: Ames Salmonella typhimurium, Strain/Indicator: TA100, Metabolic Activation: Rat, liver, S-9, Aroclor 1254, 10 and 30%, Method: Preincubation) was “inactive; negative”, the mutagenic call (Test System: Ames Salmonella typhimurium, Strain/Indicator: TA1535, Metabolic Activation: Hamster, Liver, S-9, Aroclor 1254, 10 and 30%, Method: Preincubation) was “inactive; negative” and the mutagenic call (Test System: Ames Salmonella typhimurium, Strain/Indicator: TA1535, Metabolic Activation: None, Method: Preincubation) was “inactive; negative”. The mutagenic call (Test System: Ames Salmonella typhimurium, Strain/Indicator: TA1535, Metabolic Activation: Rat, liver, S-9, Aroclor 1254, 10 and 30%, Method: Preincubation) was “inactive; negative” and the mutagenic call (Test System: Ames Salmonella typhimurium, Strain/Indicator: TA1537, Metabolic Activation: Rat, liver, S-9, Aroclor 1254, 30%, Method: Preincubation) was “inactive; negative”.
In the case of `N[C@H](Cc1ccccc1)C(=O)O`, the mutagenic call (Test System: AMES SALMONELLA TYPHIMURIUM, Strain/Indicator: TA98, Metabolic Activation: HAMSTER, LIVER, S-9, AROCLOR 1254 (10%), Method: PREINCUBATION) is reported as “inactive; negative”, the mutagenic call [1] is reported as “inactive; negative” and the mutagenic call (Test System: AMES SALMONELLA TYPHIMURIUM, Strain/Indicator: TA98, Metabolic Activation: RAT, LIVER, S-9, AROCLOR 1254 (10%), Method: PREINCUBATION) is reported as “inactive; negative”. For the same molecule, the mutagenic call (Test System: AMES SALMONELLA TYPHIMURIUM, Strain/Indicator: TA100, Metabolic Activation: HAMSTER, LIVER, S-9, AROCLOR 1254 (10%), Method: PREINCUBATION) was “inactive; negative”, the mutagenic call [2] was “inactive; negative” and the mutagenic call (Test System: AMES SALMONELLA TYPHIMURIUM, Strain/Indicator: TA100, Metabolic Activation: RAT, LIVER, S-9, AROCLOR 1254 (10%), Method: PREINCUBATION) was “inactive; negative”. The mutagenic call (Test System: AMES SALMONELLA TYPHIMURIUM, Strain/Indicator: TA1535, Metabolic Activation: HAMSTER, LIVER, S-9, AROCLOR 1254 (10%), Method: PREINCUBATION) was “inactive; negative”, the mutagenic call [3] was “inactive; negative” and the mutagenic call (Test System: AMES SALMONELLA TYPHIMURIUM, Strain/Indicator: TA1535, Metabolic Activation: RAT, LIVER, S-9, AROCLOR 1254 (10%), Method: PREINCUBATION) was “inactive; negative”. For the same molecule, the mutagenic call (Test System: AMES SALMONELLA TYPHIMURIUM, Strain/Indicator: TA1537, Metabolic Activation: HAMSTER, LIVER, S-9, AROCLOR 1254 (10%), Method: PREINCUBATION) was “inactive; negative”, the mutagenic call [4] was “inactive; negative” and the mutagenic call (Test System: AMES SALMONELLA TYPHIMURIUM, Strain/Indicator: TA1537, Metabolic Activation: RAT, LIVER, S-9, AROCLOR 1254 (10%), Method: PREINCUBATION) was “inactive; negative”.
For `Cc1cccc2nc3c(ccc4ccccc43)cc12`, the mutagenic call (Test System: AMES SALMONELLA TYPHIMURIUM, Strain/Indicator: TA97A, Metabolic Activation: NONE, Method: PREINCUBATION) was “active; positive”, the mutagenic call [1] was “inactive; negative” and the mutagenic call [2] was “inactive; negative”. The mutagenic call (Test System: AMES SALMONELLA TYPHIMURIUM, Strain/Indicator: TA102, Metabolic Activation: NONE, Method: PREINCUBATION) was “active; positive”.
With `CO[C@@H]1[C@H](C)O[C@@H](O[C@@H]2C[C@H](Oc3cc(O)c4c(O)c5c(cc4c3)C[C@@H]([C@H](OC)C(=O)[C@@H](O)[C@@H](C)O)[C@H](O[C@@H]3C[C@H](OC4C[C@H](O)[C@@H](O)[C@H](C)O4)[C@@H](O)[C@H](C)O3)C5=O)O[C@H](C)[C@@H]2O)C[C@@H]1O` (some centres undefined) the mutagenic call (Test System: CHINESE HAMSTER OVARY, Strain/Indicator: CHO (HGPRT)/6-THIOGUANINE, Metabolic Activation: NONE, Method: PREINCUBATION) was “active; positive”.
